Test results published in patent publication US11324744B2, “Methods of use and pharmaceutical combinations of histone deacetylase inhibitors and CD20 inhibitory antibodies” (Acetylon Pharmaceuticals Inc., priority 2016, dated 2022).

How the values were obtained:
CD20 mRNA in Jeko cells = test: CD20 mRNA expression relative to RPLP1 in Jeko cells; type: cell-based; settings: 0.25-4.0 μM, 48 hours, FIG. 3D
Protocol: (§1) Cells were treated with increasing concentrations of Compound A (i.e., 0.25 μM, 0.5 μM, 1.0 μM, 2.0 μM, and 4.0 μM) for 48 hours and processed for cell surface abundance of CD20 protein and mRNA in Jeko cells. The treated Jeko cells were stained for IgG2bK-APC and CD20-APC. The dotted line indicates median of DMSO treatment. The quantification of mean fluorescence intensity (MFI) following cell surface staining and flow cytometry of Jeko cells is shown in FIG. 3B. Each sample was background subtracted, where the IgG2bK-APC median MFI in Jeko cells was used as the background. […] Compound A induced CD20 mRNA expression and cell surface abundance of CD20 on Jeko cells. That can be a potential mechanism for the synergistic effect of Compound A with rituximab.

CD20 mRNA in Raji cells = test: CD20 mRNA expression relative to RPLP1 in Raji cells; type: cell-based, human; settings: 0.25-4.0 μM, 48 hours, FIG. 2D
Protocol: (§2) Cells were treated with increasing concentrations of Compound A (i.e., 0.25 μM, 0.5 μM, 1.0 μM, 2.0 μM, and 4.0 μM) for 48 hours and processed for cell surface abundance of CD20 protein and mRNA in Raji cells. The treated Raji cells were stained for IgG2bK-APC and CD20-APC. The dotted line indicates median of DMSO treatment. The quantification of mean fluorescence intensity (MFI) following cell surface staining and flow cytometry of Raji cells is shown in FIG. 2B. Each sample was background subtracted, where the IgG2bK-APC median MFI in Raji cells was used as the background. […] Together, increased CD20 expression triggered by Compound A can be a potential mechanism for the in vivo combination effect on the Raji cell model. Compound A induced CD20 mRNA expression and cell surface abundance of CD20 on Raji cells. That can be a potential mechanism for the synergistic effect of Compound A with rituximab.

CD20 in Raji cells = test: Cell surface abundance of CD20 by staining and flow cytometry in Raji cells; type: cell-based, human; settings: 0.25-4.0 μM, 48 hours, MFI, FIG. 2A/2B
Protocol: as §2

CD20 in Jeko cells = test: Cell surface abundance of CD20 by staining and flow cytometry in Jeko cells; type: cell-based; settings: 0.25-4.0 μM, 48 hours, MFI, FIG. 3A/3B
Protocol: as §1

O=C(CCCCCCNC(=O)c1cnc(N(c2ccccc2)c2ccccc2Cl)nc1)NO [Compound A, 2-((2-chlorophenyl)(phenyl)amino)-N-(7-(hydroxyamino)-7-oxoheptyl)pyrimidine-5-carboxamide]
induced: CD20 mRNA expression (CD20 mRNA in Jeko cells) | CD20 mRNA expression (CD20 mRNA in Raji cells) | cell surface abundance of CD20 (CD20 in Raji cells) | cell surface abundance of CD20 (CD20 in Jeko cells)
